Each block holds one molecule with its values, some of them ahead of it.
What was measured:
[1] = Absorption wavelength of the cyanine dyes in methanol (halo substitution effect); type: physicochemical; settings: Table 2
Excerpt: [table] Design Principle: We analyzed the properties of a dye scaffold and related compounds and the corresponding substitution effects on the excitation and emission wavelengths. The small size of fluorine is unlikely to produce steric effects, therefore, we explored the electronic effects of fluorine and related substitutions. The Hammett equation (σ-value) is an important tool to understand the electronic effects of the substituents, therefore, we explored the correlation of the wavelength (λMeOH) and the σ-value (vide infra): […]

[2] = In vivo clearance imaging in nude mice (Pearl Impulse); settings: 1 nmole; for Total (signal): 800 channel
Method: Two nude mice were injected with 1 nmole of either compound 16 or IRDye 800CW carboxylate. They were then imaged longitudinally over the next 24 h with the Pearl Impulse imaging system. The results are presented in FIG. 9: in vivo clearance in nudes (FIG. 9A), whole body dorsal views (FIG. 9B), and the rate of clearance (FIG. 9C). The clearance data is presented below in Table 4.

[3] = system: U87GM cells; test: Immunocytochemical binding, blocking and carboxylate control assay in U87GM cells; type: cell-based; settings: tested up to 5 μM, noted above 2 μM
Method: RGD (Arg-Gly-Asp), the recognition motif used to bind the integrin receptors, was labeled with compound 17. The characteristics of RGD/17 conjugate and the analogous dye carboxylate 16 were evaluated in a cell-based assay.
Immunocytochemical assays provide a tool for screening a compound for specificity of a labeled agent. Binding assays give valuable information on affinity of the labeled agent to the intended target.
Compound 17 was conjugated to the peptide RGD by the general procedure set forth in Example 32.
The cell lines U87GM and PC3MLN4 were assayed. Assays included binding, blocking, and carboxylate control. Serial dilutions of compound 16 were prepared at concentrations of 200-6.25 nM. Blocking was accomplished with unlabeled RGD at concentrations of 10-0.31 μM with the addition of 200 nM compound 17-RGD conjugates in all test wells. The compound 16 was evaluated as a dye control for non-specific binding at relatively high levels from 5-0.16 μM with U87GM cells and 1-0.002 μM with PC3 cells.
In the second round of testing with U87GM cells, concentrations of unlabeled RGD and compound 17/RGD were increased (FIGS. 8A and 8B). Binding assay concentrations utilized 0.8-400 nM while the blocking assay used 0.06-30 μM unlabeled RGD with an addition of 200 nM 17/RGD.

[4] = Comparison of dye emission maxima and quenching; type: physicochemical; settings: IRDye 800CW samples, excitation 770 nm; for Peak fluorescence emission intensity: PBS pH 7.4; for Percent Quenching: versus dye-linker standard
Method: Solutions of dye-linker standards and dye-linker-quencher samples were diluted into PBS buffer (pH 7.4) to give a dye-specific absorbance less than 0.2 AU. The fluorescence spectra of each dilution were then taken at a consistent excitation wavelength (670 nm for HETD and 770 nm for IRDye 800CW). The emission spectra were collected from 680-1000 nm for the HETD samples and 780-1000 nm for the IRDye 800CW samples.

[5] = Photophysical properties (absorption, emission, fluorescence intensity, quantum yield) versus IRDye 800CW; type: physicochemical
[6] = IRDye 800CW used as standard; cited from earlier work

SMILES: CC1(C)C(/C=C/C2=C(Oc3ccc(S(=O)(=O)[O-])cc3)C(=C/C=C3/N(CCCCS(=O)(=O)[O-])c4ccc(S(=O)(=O)[O-])cc4C3(C)C)/CCC2)=[N+](CCCCCC(=O)NCCCOCCOCCOCCCNC(=O)CCCCC[N+]2=C(/C=C/C3=C(c4ccccc4F)C(=C/C=C4/N(CCCS(=O)(=O)[O-])c5ccc(N(CCCS(=O)(=O)[O-])CCCS(=O)(=O)[O-])cc5C4(C)C)/CCC3)C(C)(C)c3c2ccc2cc(S(=O)(=O)[O-])ccc32)c2ccc(S(=O)(=O)[O-])cc21.[Na+].[Na+].[Na+].[Na+].[Na+].[Na+] [Compound 38]
Peak fluorescence emission intensity [4]: 385983 | Percent Quenching [4]: 71.3%

SMILES: CC1(C)C(/C=C/C2=C(Oc3ccc(S(=O)(=O)[O-])cc3)C(=C/C=C3/N(CCCCS(=O)(=O)[O-])c4ccc(S(=O)(=O)[O-])cc4C3(C)C)/CCC2)=[N+](CCCCCC(=O)NCCOCCOCCOCCOCCOCCOCCOCCOCCOCCOCCOCCNC(=O)CCCCC[N+]2=C(/C=C/C3=C(c4ccccc4F)C(=C/C=C4/N(CCCS(=O)(=O)[O-])c5ccc(N(CCCS(=O)(=O)[O-])CCCS(=O)(=O)[O-])cc5C4(C)C)/CCC3)C(C)(C)c3c2ccc2cc(S(=O)(=O)[O-])ccc32)c2ccc(S(=O)(=O)[O-])cc21.[Na+].[Na+].[Na+].[Na+].[Na+].[Na+] [Compound 39]
Peak fluorescence emission intensity [4]: 438981 | Percent Quenching [4]: 65.5%

SMILES: CC1(C)C(/C=C/C2=C(Oc3ccc(S(=O)(=O)[O-])cc3)C(=C/C=C3/N(CCCCS(=O)(=O)[O-])c4ccc(S(=O)(=O)[O-])cc4C3(C)C)/CCC2)=[N+](CCCCCC(=O)NCCOCCOCCOCCOCCOCCOCCOCCOCCOCCOCCOCCN)c2ccc(S(=O)(=O)[O-])cc21.O=C(O)C(F)(F)F.[Na+].[Na+].[Na+] [IRDye 800CW-PEG11-NH2]
Peak fluorescence emission intensity [4]: 1272820

The next lines start with results.

λMeOH [1]: 785 nm | Total (signal) ([2]; 1 Min): 109682.80 | Total (signal) ([2]; 17 Min): 282046.59 | Total (signal) ([2]; 45 Min): 286573.94 | Total (signal) ([2]; 71 Min): 266647.59 | Total (signal) ([2]; 190 Min): 139736.97 | Total (signal) ([2]; 276 Min): 76493.30 | Total (signal) ([2]; 1435 Min): 1652.69 | Clearance in vivo ([2]; nude mice, imaged over 24 h): good clearance
SMILES: CC1(C)C(/C=C/C2=C(c3c(F)cc(F)cc3F)C(=C/C=C3/N(CCCS(=O)(=O)[O-])c4ccc(S(=O)(=O)[O-])cc4C3(C)C)/CC(C(=O)O)C2)=[N+](CCCS(=O)(=O)[O-])c2ccc(S(=O)(=O)[O-])cc21.[Na+].[Na+].[Na+] (stereo not shown) [Compound 16]
Non-specific binding of the dye component alone [3]: Relatively high binding

Peak fluorescence emission intensity [4]: 519267
SMILES: CC1(C)C(/C=C/C2=C(Oc3ccc(S(=O)(=O)[O-])cc3)C(=C/C=C3/N(CCCCS(=O)(=O)[O-])c4ccc(S(=O)(=O)[O-])cc4C3(C)C)/CCC2)=[N+](CCCCCC(=O)NCCCCCCNC(=O)CCCCC[N+]2=C(/C=C/C3=C(c4ccccc4F)C(=C/C=C4/N(CCCS(=O)(=O)[O-])c5ccc(N(CCCS(=O)(=O)[O-])CCCS(=O)(=O)[O-])cc5C4(C)C)/CCC3)C(C)(C)c3c2ccc2cc(S(=O)(=O)[O-])ccc32)c2ccc(S(=O)(=O)[O-])cc21.[Na+].[Na+].[Na+].[Na+].[Na+].[Na+] [Compound 37]
Percent Quenching [4]: 61.4%

Fl Intensity of X / Fl Intensity of 800 CW, Odyssey ([5]; 0.1 μM solutions in 1XPBS, Odyssey): 100% | Fl Intensity of X / Fl Intensity of 800 CW, Fluorimeter ([5]; 0.1 μM solutions in 1XPBS, fluorimeter): 100% | Abs Max PBS ([5]; in PBS): 775 nm | EmMax PBS ([5]; in PBS): 790 nm
SMILES: CC1(C)C(=CC=C2CCCC(C=CC3=[N+](CCCCCC(=O)[O-])c4ccc(S(=O)(=O)[O-])cc4C3(C)C)=C2Oc2ccc(S(=O)(=O)[O-])cc2)N(CCCCS(=O)(=O)[O-])c2ccc(S(=O)(=O)[O-])cc21.[Na+].[Na+].[Na+].[Na+] [IRDye 800CW, reference compound]
Quantum Yield of the standard [6]: 0.07

Source: patent US9089603B2, “Fluorescent imaging with substituted cyanine dyes” (LI-COR, INC., priority 2010, dated 2015)
